In paper PMC7857491, “Quantification and characterization of the 5′ exonuclease activity of the lysosomal nuclease PLD3 by a novel cell-based assay” (The Journal of Biological Chemistry, 2020):

Target: Phospholipase D3 (PLD3) (Homo sapiens, UniProt Q8IV08)
Sequence (Q8IV08 whole entry): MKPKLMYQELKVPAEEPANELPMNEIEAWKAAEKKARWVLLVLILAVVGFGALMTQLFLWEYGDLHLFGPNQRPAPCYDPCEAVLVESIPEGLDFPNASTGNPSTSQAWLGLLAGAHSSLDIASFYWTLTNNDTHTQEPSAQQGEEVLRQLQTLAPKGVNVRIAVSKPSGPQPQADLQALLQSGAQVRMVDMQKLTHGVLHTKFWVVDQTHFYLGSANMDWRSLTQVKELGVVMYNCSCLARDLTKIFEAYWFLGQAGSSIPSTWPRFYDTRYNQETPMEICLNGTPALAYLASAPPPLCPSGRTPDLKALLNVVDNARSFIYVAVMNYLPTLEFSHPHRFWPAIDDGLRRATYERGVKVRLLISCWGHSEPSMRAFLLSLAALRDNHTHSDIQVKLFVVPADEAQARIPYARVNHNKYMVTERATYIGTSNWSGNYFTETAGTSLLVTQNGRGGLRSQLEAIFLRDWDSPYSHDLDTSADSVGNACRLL

Work on `[O]=[V]([OH])([OH])[OH]` [orthovanadate] yielded an IC50 of 10 µM.
